Results as given in patent publication US20250281451A1, “COMPOSITIONS AND METHODS FOR MODULATING SLEEP AND USES THEREOF” (Brightseed, Inc., priority 2022, published 2025).
pIC50: −log10 of the molar value. “Also recorded” adds a separate entry of the source.

Columns and labels:
Orx2 = biological target: T1, Orx2 (Homo sapiens, UniProt O43614); assay: Orx2 antagonist screening, chemiluminescent cell assay with Orexin B EC80; assay type: cell-based; conditions: for % Agonism Orx2 at Relative IC50: absolute percent agonism at the μM concentration of the relative OR2 IC50; for pIC50: antagonist mode against Orexin B EC80, read-out: Relative IC50 of Orx2
T1 construct: DiscoverX
T1 sequence (O43614 1-444): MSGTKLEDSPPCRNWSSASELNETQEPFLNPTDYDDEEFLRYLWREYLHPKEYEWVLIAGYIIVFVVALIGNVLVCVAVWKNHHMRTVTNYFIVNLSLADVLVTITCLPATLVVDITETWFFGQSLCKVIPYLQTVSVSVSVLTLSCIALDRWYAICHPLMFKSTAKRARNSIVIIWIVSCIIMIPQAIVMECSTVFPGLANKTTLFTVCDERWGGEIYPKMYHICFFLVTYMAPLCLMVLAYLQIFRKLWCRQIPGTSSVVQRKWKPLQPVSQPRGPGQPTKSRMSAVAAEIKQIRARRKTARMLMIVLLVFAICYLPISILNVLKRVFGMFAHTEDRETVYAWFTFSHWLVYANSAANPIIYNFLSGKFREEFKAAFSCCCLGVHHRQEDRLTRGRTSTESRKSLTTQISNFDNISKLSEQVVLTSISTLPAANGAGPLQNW
Protocol: For this example, the following protocol was used: 1.) seed cells in 20 μL Cell Plating Reagent; 2.) incubate cells overnight at 37° C. and 5% CO2; 3.) treat cells with 2.5 μL 10× antagonist prepared in Compound Dilution Buffer (For OR2 screening, 2.5 μL of 1:100 natural product sample in DiscoverX cell plating reagent. Control antagonist, Seltorexant, 10× stock was prepared at 1500 nM); 4.) incubate for 30 minutes at 37° C. and 5% CO2; 5.) treat cells with 2.5 μL 10× agonist prepared in Compound Dilution Buffer (For OR2 screening, 2.5 μL of 10× Orexin B EC80, 252.7 nM); 6.) incubate for 90 minutes at 37° C. and 5% CO2; 7.) add 12.5 μL Working Detection Solution; 8.) incubate for 1 hour at room temperature in the dark; and 9.) read chemiluminescent signal.
(§1) The plants described herein were tested to determine the concentration, in μM, to achieve the relative IC50 of OR2 receptor, the absolute percent agonism achieved at the μM concentration of the relative OR2 IC50, the percentage receptor activity at the concentration, in μM, needed to achieve IC50 in OR2, the percentage cell viability, measured by XTT assay, at the IC50 μM concentration, the concentration of the fraction, in fold dilution, needed to achieve IC50 of OR2, and the percentage receptor activity at the concentration of the fraction, in fold dilution, needed to achieve IC50 of OR2.

Orx1 = biological target: T2, Orx1 (Homo sapiens, UniProt O43613); assay: % agonism on Orx1 at the OR2 IC50 concentration; assay type: cell-based; conditions: at the μM concentration needed to achieve IC50 in OR2
T2 sequence (O43613 1-425): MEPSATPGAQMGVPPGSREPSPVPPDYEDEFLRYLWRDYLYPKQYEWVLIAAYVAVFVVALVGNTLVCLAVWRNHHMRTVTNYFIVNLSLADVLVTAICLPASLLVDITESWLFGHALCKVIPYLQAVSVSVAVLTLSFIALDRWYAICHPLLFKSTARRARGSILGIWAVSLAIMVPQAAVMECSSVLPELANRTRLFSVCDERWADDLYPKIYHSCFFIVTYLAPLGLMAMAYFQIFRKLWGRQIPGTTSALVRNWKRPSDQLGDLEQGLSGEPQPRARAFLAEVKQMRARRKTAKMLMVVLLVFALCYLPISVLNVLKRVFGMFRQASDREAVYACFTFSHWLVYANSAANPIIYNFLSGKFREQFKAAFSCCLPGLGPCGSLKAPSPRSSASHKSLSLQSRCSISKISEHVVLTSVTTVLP
Protocol: For this example, the following protocol was used: 1.) seed cells in 20 μL Cell Plating Reagent; 2.) incubate cells overnight at 37° C. and 5% CO2; 3.) treat cells with 2.5 μL 10× antagonist prepared in Compound Dilution Buffer (For OR2 screening, 2.5 μL of 1:100 natural product sample in DiscoverX cell plating reagent.
as §1

male Sprague-Dawley rat = assay: in vivo tolerability, dose escalation, adverse effect observation; conditions: for 15 min effects (adverse effects) / 30 min effects (adverse effects) / 60 min effects (adverse effects): n=3 rats, (x/3) animals affected; for tolerability: all four doses (30, 100, 315 and 500 mg/kg) p.o., 60 min observation
Protocol: In this example, the in vivo tolerability of Compounds 26, 21, 29, and 13 was assessed.
Naïve rats (male Sprague-Dawley rat) were acclimatized to the procedure room in their home cages up to 7 days following arrival to the test facility, with food and water available ad libitum. On the day of experiment, animals were acclimatized to the experimental room for at least one hour prior to the beginning of any experiment. All animals were tail marked, weighed and randomly assigned to treatment groups. The animals (n=3 per dose) were treated with either Compounds 26, 21, 29, and 13 (10 mL/kg, p.o.). For each compound a maximum of 4 doses were tested using a dose escalation procedure starting from 30 mg/kg. If this initial dose is well-tolerated, the dosage is increased to 100 mg/kg. If the 30 mg/kg dose is not tolerated, the dose is reduced to 15 mg/kg. Following the dose escalation procedure, if the 100 mg/kg dose is well-tolerated, the dose is escalated to 315 mg/kg. If it is not tolerated, the dose is decreased to 60 mg/kg. The pattern continues with the next decision point: if 315 mg/kg is well-tolerated, the dose is increased to the maximum of 500 mg/kg. If 315 mg/kg is not tolerated, the dose is decreased to 200 mg/kg.
The compounds would be considered not tolerated if three or more adverse effects (or any severe adverse effect) occurred at specific dose during the entire period of 60 mins. […] Mild—slight decrease in activity, responsive when provoked. Moderate—decrease in activity, less responsive when provoked.

cells = assay: cell viability, XTT assay; assay type: cell-based; conditions: at the IC50 μM concentration of the compound
Protocol: as §1

O=c1c(O[C@@H]2OC[C@H](O)[C@H](O)[C@H]2O)c(-c2ccc(O)cc2)oc2cc(O)cc(O)c12 [Compound 26, 5,7-dihydroxy-2-(4-hydroxyphenyl)-3-[(2S,3R,4S,5S)-3,4,5-trihydroxyoxan-2-yl]oxychromen-4-one]
% Agonism Orx2 at Relative IC50 (Orx2): 40%
pIC50 (Orx2): 3.75
% Agonism on Orx1 at OR2 IC50 (Orx1): 60.57%
15 min effects (adverse effects) (male Sprague-Dawley rat; 30 mg/kg p.o.): Reduced activity
30 min effects (adverse effects) (male Sprague-Dawley rat; 30 mg/kg p.o.): No adverse effects
60 min effects (adverse effects) (male Sprague-Dawley rat; 30 mg/kg p.o.): Reduced activity (3/3)
15 min effects (adverse effects) (male Sprague-Dawley rat; 100 mg/kg p.o.): Reduced activity
30 min effects (adverse effects) (male Sprague-Dawley rat; 100 mg/kg p.o.): Reduced activity
60 min effects (adverse effects) (male Sprague-Dawley rat; 100 mg/kg p.o.): Reduced activity (3/3)
15 min effects (adverse effects) (male Sprague-Dawley rat; 315 mg/kg p.o.): No adverse effects
30 min effects (adverse effects) (male Sprague-Dawley rat; 315 mg/kg p.o.): No adverse effects
60 min effects (adverse effects) (male Sprague-Dawley rat; 315 mg/kg p.o.): No adverse effects
15 min effects (adverse effects) (male Sprague-Dawley rat; 500 mg/kg p.o.): No adverse effects
30 min effects (adverse effects) (male Sprague-Dawley rat; 500 mg/kg p.o.): Reduced activity
60 min effects (adverse effects) (male Sprague-Dawley rat; 500 mg/kg p.o.): No adverse effects
tolerability (male Sprague-Dawley rat): well-tolerated
% Cell viability at IC50 (cells): 98.95%

O=c1cc(-c2ccc(O)c(O)c2)oc2cc(O)cc(O)c12 [Compound 13, 2-(3,4-dihydroxyphenyl)-5,7-dihydroxychromen-4-one]
% Agonism Orx2 at Relative IC50 (Orx2): 50%
pIC50 (Orx2): 4.14
IC50 Dilution of Orx2 (fold dilution) (Orx2; concentration of the fraction of the plant source, in fold dilution, needed to achieve IC50 of OR2): 2283.9 fold dilution
% Agonism on Orx1 at OR2 IC50 (Orx1): 42.72%
15 min effects (adverse effects) (male Sprague-Dawley rat; 30 mg/kg p.o.): No adverse effects
30 min effects (adverse effects) (male Sprague-Dawley rat; 30 mg/kg p.o.): No adverse effects
60 min effects (adverse effects) (male Sprague-Dawley rat; 30 mg/kg p.o.): Reduced activity (3/3)
15 min effects (adverse effects) (male Sprague-Dawley rat; 100 mg/kg p.o.): No adverse effects
30 min effects (adverse effects) (male Sprague-Dawley rat; 100 mg/kg p.o.): Reduced activity
60 min effects (adverse effects) (male Sprague-Dawley rat; 100 mg/kg p.o.): No adverse effects
15 min effects (adverse effects) (male Sprague-Dawley rat; 315 mg/kg p.o.): No adverse effects
30 min effects (adverse effects) (male Sprague-Dawley rat; 315 mg/kg p.o.): No adverse effects
60 min effects (adverse effects) (male Sprague-Dawley rat; 315 mg/kg p.o.): No adverse effects
15 min effects (adverse effects) (male Sprague-Dawley rat; 500 mg/kg p.o.): Pica (2/3)
30 min effects (adverse effects) (male Sprague-Dawley rat; 500 mg/kg p.o.): Reduced activity; also recorded: Pica (2/3)
60 min effects (adverse effects) (male Sprague-Dawley rat; 500 mg/kg p.o.): Reduced activity (1/3)
tolerability (male Sprague-Dawley rat): well-tolerated
% Cell viability at IC50 (cells): 98.24%

O=c1c(O[C@@H]2O[C@@H](CO)[C@H](O)[C@H]2O)c(-c2ccc(O)cc2)oc2cc(O)cc(O)c12 [Compound 27, 3-[(2S,3R,4R,5S)-3,4-dihydroxy-5-(hydroxymethyl)oxolan-2-yl]oxy-5,7-dihydroxy-2-(4-hydroxyphenyl)chromen-4-one]
% Agonism Orx2 at Relative IC50 (Orx2): 45%
pIC50 (Orx2): 3.81
% Agonism on Orx1 at OR2 IC50 (Orx1): 56.18%
% Cell viability at IC50 (cells): 101.69%

COc1cc(-c2oc3c(OC)c(O[C@@H]4O[C@H](COC(C)=O)[C@@H](O)[C@H](O)[C@H]4O[C@@H]4O[C@@H](C)[C@H](O)[C@@H](O)[C@H]4O)cc(O)c3c(=O)c2O)ccc1O [Compound 25, [(2R,3S,4S,5R,6S)-6-[3,5-dihydroxy-2-(4-hydroxy-3-methoxyphenyl)-8-methoxy-4-oxochromen-7-yl]oxy-3,4-dihydroxy-5-[(2S,3R,4R,5R,6S)-3,4,5-trihydroxy-6-methyloxan-2-yl]oxyoxan-2-yl]methyl acetate]
% Agonism Orx2 at Relative IC50 (Orx2): 50%
pIC50 (Orx2): 3.83
% Agonism on Orx1 at OR2 IC50 (Orx1): 103.7053%
% Cell viability at IC50 (cells): 91.68%

Cc1cc(O)c2c(c1)C(=O)c1cc(O)cc(O[C@@H]3O[C@H](CO)[C@@H](O)[C@H](O)[C@H]3O)c1C2=O [Compound 30, 1,6-dihydroxy-3-methyl-8-[(2S,3R,4S,5S,6R)-3,4,5-trihydroxy-6-(hydroxymethyl)oxan-2-yl]oxyanthracene-9,10-dione]
% Agonism Orx2 at Relative IC50 (Orx2): 50%
pIC50 (Orx2): 4.09
% Agonism on Orx1 at OR2 IC50 (Orx1): 26.23%
% Cell viability at IC50 (cells): 100%
